One assay concerns the target human Gal-1 (hGal-1). The assay is described as follows: Competitive binding assay: biotinylated hGal-1 binding to microplate-adsorbed asialofetuin (ASF). Conditions: Activity on hGal-1; binding of biotinylated hGal-1 to ASF-coated plates; mean values. The method in brief: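 Inhibition measured as loss of hGal-1 (biotinylated, 300–1000 ng/mL, wild type or Cys→Ser mutant) binding to adsorbed asialofetuin over 3 h at 4 °C. Bound lectin detected with streptavidin-HRP and ABTS (410 nm, 30–45 min); IC50 values averaged across repeat measurements.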

Another assay addresses human Gal-3 (hGal-3) (Homo sapiens (Human), UniProt P17931). The assay is described as follows: Competitive binding assay: biotinylated hGal-3 binding to microplate-adsorbed asialofetuin (ASF). The note with it: Activity on hGal-3; binding of biotinylated hGal-3 to ASF-coated plates; mean values. The gist of the method:
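Serially diluted compounds competed with biotinylated human Gal-3 for binding to plate-adsorbed asialofetuin over 3 h at 4 °C. Bound Gal-3 was detected with streptavidin-peroxidase (80 ng/mL, 1 h, 4 °C) and ABTS substrate. IC50 values are means of several measurements.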

SMILES strings stand for the structures.

Sequence of human Gal-1 (hGal-1) (P09382 2-135 limits assumed): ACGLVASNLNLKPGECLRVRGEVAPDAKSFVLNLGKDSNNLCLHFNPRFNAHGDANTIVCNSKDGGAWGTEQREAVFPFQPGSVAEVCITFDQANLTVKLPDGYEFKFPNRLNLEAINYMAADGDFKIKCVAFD
Sequence of human Gal-3 (hGal-3) (P17931 whole entry): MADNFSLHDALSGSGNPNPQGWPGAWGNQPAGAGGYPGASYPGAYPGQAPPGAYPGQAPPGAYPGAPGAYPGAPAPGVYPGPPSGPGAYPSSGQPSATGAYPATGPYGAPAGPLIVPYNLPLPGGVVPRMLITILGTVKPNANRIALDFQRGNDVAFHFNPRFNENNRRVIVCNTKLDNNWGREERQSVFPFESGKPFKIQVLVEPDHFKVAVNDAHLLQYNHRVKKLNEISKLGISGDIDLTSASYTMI

What is called IC50 is the point on the concentration scale where inhibition reaches its midpoint. For `COc1cc(C#N)cc(N(C(=O)[C@@H]2O[C@H](CO)[C@H](O)[C@H](n3cc(-c4cc(F)cc(Cl)c4)nn3)[C@H]2OC)[C@H]2CCCC[C@@H]2O)c1` [Example 141, (2R,3R,4S,5R,6R)-4-(4-(3-chloro-5-fluorophenyl)-1H-1,2,3-triazol-1-yl)-N-(3-cyano-5-methoxyphenyl)-5-hydroxy-N-((1S,2S)-2-hydroxycyclohexyl)-6-(hydroxymethyl)-3-methoxytetrahydro-2H-pyran-2-carboxamide], the IC50 on human Gal-1 (hGal-1) worked out at 1560 nM; at human Gal-3 (hGal-3), 56 nM.

For `CO[C@@H]1[C@@H](n2cc(-c3cc(F)cc(Cl)c3)nn2)[C@@H](O)[C@@H](CO)O[C@H]1C(=O)N(c1cccc(C#N)c1)[C@H]1CCCC[C@@H]1O` [Example 142, (2R,3R,4S,5R,6R)-4-(4-(3-chloro-5-fluorophenyl)-1H-1,2,3-triazol-1-yl)-N-(3-cyanophenyl)-5-hydroxy-N-((1S,2S)-2-hydroxycyclohexyl)-6-(hydroxymethyl)-3-methoxytetrahydro-2H-pyran-2-carboxamide], the IC50 on human Gal-1 (hGal-1) was 1670 nM; at human Gal-3 (hGal-3) it was 77 nM.

On to `CO[C@@H]1[C@@H](n2cc(-c3cc(F)cc(Cl)c3)nn2)[C@@H](O)[C@@H](CO)O[C@H]1C(=O)N(c1cccc(Cl)c1)[C@H]1CCCC[C@@H]1O` [Example 143, (2R,3R,4S,5R,6R)-4-(4-(3-chloro-5-fluorophenyl)-1H-1,2,3-triazol-1-yl)-N-(3-chlorophenyl)-5-hydroxy-N-((1S,2S)-2-hydroxycyclohexyl)-6-(hydroxymethyl)-3-methoxytetrahydro-2H-pyran-2-carboxamide], for which the IC50 on human Gal-1 (hGal-1) stood at 1410 nM; on human Gal-3 (hGal-3), 24 nM.

Turning to `CO[C@@H]1[C@@H](n2cc(-c3cc(F)cc(Br)c3)nn2)[C@@H](O)[C@@H](CO)O[C@H]1C(=O)N(c1cc(Cl)cc(Cl)c1)[C@H]1CCCC[C@@H]1O` [Example 144, (2R,3R,4S,5R,6R)-4-(4-(3-bromo-5-fluorophenyl)-1H-1,2,3-triazol-1-yl)-N-(3,5-dichlorophenyl)-5-hydroxy-N-((1S,2S)-2-hydroxycyclohexyl)-6-(hydroxymethyl)-3-methoxytetrahydro-2H-pyran-2-carboxamide], the figures for the IC50 on human Gal-1 (hGal-1) and at human Gal-3 (hGal-3) were 726 nM and 61 nM, respectively.

As to `CO[C@@H]1[C@@H](n2cc(-c3cc(F)cc(Br)c3)nn2)[C@@H](O)[C@@H](CO)O[C@H]1C(=O)N(c1cc(Cl)cc(C#N)c1)[C@H]1CCCC[C@@H]1O` [Example 145, (2R,3R,4S,5R,6R)-4-(4-(3-bromo-5-fluorophenyl)-1H-1,2,3-triazol-1-yl)-N-(3-chloro-5-cyanophenyl)-5-hydroxy-N-((1S,2S)-2-hydroxycyclohexyl)-6-(hydroxymethyl)-3-methoxytetrahydro-2H-pyran-2-carboxamide], the values for the IC50 at human Gal-1 (hGal-1) and on human Gal-3 (hGal-3) were 218 nM and 18 nM, respectively.

As to `CO[C@@H]1[C@@H](n2cc(-c3cc(F)cc(Br)c3)nn2)[C@@H](O)[C@@H](CO)O[C@H]1C(=O)N(c1cc(C)cc(C#N)c1)[C@H]1CCCC[C@@H]1O` [Example 146, (2R,3R,4S,5R,6R)-4-(4-(3-bromo-5-fluorophenyl)-1H-1,2,3-triazol-1-yl)-N-(3-cyano-5-methylphenyl)-5-hydroxy-N-((1S,2S)-2-hydroxycyclohexyl)-6-(hydroxymethyl)-3-methoxytetrahydro-2H-pyran-2-carboxamide], the IC50 at human Gal-1 (hGal-1) came out at 751 nM; at human Gal-3 (hGal-3), 50 nM.

`CO[C@@H]1[C@@H](n2cc(-c3cc(F)cc(Br)c3)nn2)[C@@H](O)[C@@H](CO)O[C@H]1C(=O)N(c1cc(F)cc(Cl)c1)[C@H]1CCCC[C@@H]1O` [Example 147, (2R,3R,4S,5R,6R)-4-(4-(3-bromo-5-fluorophenyl)-1H-1,2,3-triazol-1-yl)-N-(3-chloro-5-fluorophenyl)-5-hydroxy-N-((1S,2S)-2-hydroxycyclohexyl)-6-(hydroxymethyl)-3-methoxytetrahydro-2H-pyran-2-carboxamide]: the concentration for half-maximal inhibition (IC50) at human Gal-1 (hGal-1) was 530 nM; at human Gal-3 (hGal-3), 71 nM.

For the compound `CO[C@@H]1[C@@H](n2cc(-c3cc(F)cc(Br)c3)nn2)[C@@H](O)[C@@H](CO)O[C@H]1C(=O)N(c1cccc(C#N)c1)[C@H]1CCCC[C@@H]1O` [Example 148, (2R,3R,4S,5R,6R)-4-(4-(3-bromo-5-fluorophenyl)-1H-1,2,3-triazol-1-yl)-N-(3-cyanophenyl)-5-hydroxy-N-((1S,2S)-2-hydroxycyclohexyl)-6-(hydroxymethyl)-3-methoxytetrahydro-2H-pyran-2-carboxamide], the IC50 is 343 nM at human Gal-1 (hGal-1) and 81 nM on human Gal-3 (hGal-3).

On to `CO[C@@H]1[C@@H](n2cc(-c3cc(F)cc(Br)c3)nn2)[C@@H](O)[C@@H](CO)O[C@H]1C(=O)N(c1cccc(Cl)c1)[C@H]1CCCC[C@@H]1O` [Example 149, (2R,3R,4S,5R,6R)-4-(4-(3-bromo-5-fluorophenyl)-1H-1,2,3-triazol-1-yl)-N-(3-chlorophenyl)-5-hydroxy-N-((1S,2S)-2-hydroxycyclohexyl)-6-(hydroxymethyl)-3-methoxytetrahydro-2H-pyran-2-carboxamide], for which the IC50 at human Gal-1 (hGal-1) was 707 nM; on human Gal-3 (hGal-3) it was 85 nM.

For the compound `COc1cc(C#N)cc(N(C(=O)[C@@H]2O[C@H](CO)[C@H](O)[C@H](n3cc(-c4cc(F)cc(Br)c4)nn3)[C@H]2OC)[C@H]2CCCC[C@@H]2O)c1` [Example 150, (2R,3R,4S,5R,6R)-4-(4-(3-bromo-5-fluorophenyl)-1H-1,2,3-triazol-1-yl)-N-(3-cyano-5-methoxyphenyl)-5-hydroxy-N-((1S,2S)-2-hydroxycyclohexyl)-6-(hydroxymethyl)-3-methoxytetrahydro-2H-pyran-2-carboxamide], the IC50 at human Gal-1 (hGal-1) is 671 nM; on human Gal-3 (hGal-3), 62 nM.

As to `CO[C@@H]1[C@@H](n2cc(-c3cc(F)c(Br)c(F)c3)nn2)[C@@H](O)[C@@H](CO)O[C@H]1C(=O)N(c1cc(Cl)cc(Cl)c1)[C@H]1CCCC[C@@H]1O` [Example 151, (2R,3R,4S,5R,6R)-4-(4-(4-bromo-3,5-difluorophenyl)-1H-1,2,3-triazol-1-yl)-N-(3,5-dichlorophenyl)-5-hydroxy-N-((1S,2S)-2-hydroxycyclohexyl)-6-(hydroxymethyl)-3-methoxytetrahydro-2H-pyran-2-carboxamide], the IC50 on human Gal-1 (hGal-1) stood at 1130 nM; at human Gal-3 (hGal-3) it was 37 nM.

Turning to `CO[C@@H]1[C@@H](n2cc(-c3cc(F)c(Br)c(F)c3)nn2)[C@@H](O)[C@@H](CO)O[C@H]1C(=O)N(c1ccc(F)c(F)c1)[C@H]1CCCC[C@@H]1O` [Example 152, (2R,3R,4S,5R,6R)-4-(4-(4-bromo-3,5-difluorophenyl)-1H-1,2,3-triazol-1-yl)-N-(3,4-difluorophenyl)-5-hydroxy-N-((1S,2S)-2-hydroxycyclohexyl)-6-(hydroxymethyl)-3-methoxytetrahydro-2H-pyran-2-carboxamide], the figures for the IC50 on human Gal-1 (hGal-1) and at human Gal-3 (hGal-3) were 3140 nM and 62 nM, respectively.

Take `CO[C@@H]1[C@@H](n2cc(-c3cc(F)c(Br)c(F)c3)nn2)[C@@H](O)[C@@H](CO)O[C@H]1C(=O)N(c1ccc2scnc2c1)[C@H]1CCCC[C@@H]1O` [Example 153, (2R,3R,4S,5R,6R)-N-(benzo[d]thiazol-5-yl)-4-(4-(4-bromo-3,5-difluorophenyl)-1H-1,2,3-triazol-1-yl)-5-hydroxy-N-((1S,2S)-2-hydroxycyclohexyl)-6-(hydroxymethyl)-3-methoxytetrahydro-2H-pyran-2-carboxamide]: the results for the IC50 at human Gal-1 (hGal-1) and on human Gal-3 (hGal-3) were 1080 nM and 25 nM, respectively.

For `CO[C@@H]1[C@@H](n2cc(-c3cc(F)c(Br)c(F)c3)nn2)[C@@H](O)[C@@H](CO)O[C@H]1C(=O)N(c1cc(Cl)cc(C#N)c1)[C@H]1CCCC[C@@H]1O` [Example 154, (2R,3R,4S,5R,6R)-4-(4-(4-bromo-3,5-difluorophenyl)-1H-1,2,3-triazol-1-yl)-N-(3-chloro-5-cyanophenyl)-5-hydroxy-N-((1S,2S)-2-hydroxycyclohexyl)-6-(hydroxymethyl)-3-methoxytetrahydro-2H-pyran-2-carboxamide], the IC50 at human Gal-1 (hGal-1) was determined as 957 nM; on human Gal-3 (hGal-3) it was 23 nM.

Take `CO[C@@H]1[C@@H](n2cc(-c3cc(F)c(Br)c(F)c3)nn2)[C@@H](O)[C@@H](CO)O[C@H]1C(=O)N(c1cc(F)cc(C#N)c1)[C@H]1CCCC[C@@H]1O` [Example 155, (2R,3R,4S,5R,6R)-4-(4-(4-bromo-3,5-difluorophenyl)-1H-1,2,3-triazol-1-yl)-N-(3-cyano-5-fluorophenyl)-5-hydroxy-N-((1S,2S)-2-hydroxycyclohexyl)-6-(hydroxymethyl)-3-methoxytetrahydro-2H-pyran-2-carboxamide]: the IC50 on human Gal-1 (hGal-1) was 1510 nM; at human Gal-3 (hGal-3), 24 nM.

For `CO[C@@H]1[C@@H](n2cc(-c3cc(F)c(C)c(F)c3)nn2)[C@@H](O)[C@@H](CO)O[C@H]1C(=O)N(c1cc(Cl)cc(Cl)c1)[C@H]1CCCC[C@@H]1O` [Example 158, (2R,3R,4S,5R,6R)-N-(3,5-dichlorophenyl)-4-(4-(3,5-difluoro-4-methylphenyl)-1H-1,2,3-triazol-1-yl)-5-hydroxy-N-((1S,2S)-2-hydroxycyclohexyl)-6-(hydroxymethyl)-3-methoxytetrahydro-2H-pyran-2-carboxamide], the IC50 at human Gal-1 (hGal-1) was found to be 798 nM; on human Gal-3 (hGal-3) it was 15 nM.

Regarding `CO[C@@H]1[C@@H](n2cc(-c3cc(F)c(C)c(F)c3)nn2)[C@@H](O)[C@@H](CO)O[C@H]1C(=O)N(c1cc(Cl)cc(C#N)c1)[C@H]1CCCC[C@@H]1O` [Example 159, (2R,3R,4S,5R,6R)-N-(3-chloro-5-cyanophenyl)-4-(4-(3,5-difluoro-4-methylphenyl)-1H-1,2,3-triazol-1-yl)-5-hydroxy-N-((1S,2S)-2-hydroxycyclohexyl)-6-(hydroxymethyl)-3-methoxytetrahydro-2H-pyran-2-carboxamide], the values for the IC50 at human Gal-1 (hGal-1) and at human Gal-3 (hGal-3) were 528 nM and 12 nM, respectively.

These data come from patent publication US12291519B2, “2-hydroxycycloalkane-1-carbamoyl” (Idorsia Pharmaceuticals Ltd, priority 2019, dated 2025).
